These results are taken from PubChem BioAssay AID1259411 (Chemical Carcinogenesis Research Information System (CCRIS), 2018).

The subject of the data set is rodent carcinogenicity bioassays, tumor incidence. Kind of data set: CCRIS carcinogenicity studies. In a few lines:
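NCI-built, expert-reviewed records of carcinogenicity and related test outcomes (mutagenicity, tumor promotion/inhibition) compiled from published and report sources, historical span 1985-2011, not updated.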

Molecules are shown by their SMILES. Activity calls are given as the source filed them. How the calls were made is not given here.

Consider `O=NN1CCOC(O)C1` (configuration not stated), for which the carcinogen call by setting is: (Species: MOUSE, Strain/Sex: STRAIN-A/FEMALE, Route: ORAL, Dose: 0, 0.2 UMOL/ML IN DRINKING WATER FOR 10 WK (TOTAL DOSE: 0; 53 UMOL) FOLLOWED BY TAP WATER FOR 20 WK (STUDY DURATION: 30, Dose: 0, 0.2 UMOL/ML IN DRINKING WATER FOR 10 WK (TOTAL DOSE: 0; 53 UMOL) FOLLOWED BY TAP WATER FOR 20 WK (STUDY DURATION: 30, Tumor Site: Type of Lesion: LUNG: TUMORS) “active; positive”; (Species: RAT, Strain/Sex: F344/FEMALE, Route: GAVAGE, Dose: 0, 22 MG/WK FOR A TOTAL DOSE OF 8.5 MMOL (STUDY DYRATION: 110 WK), Tumor Site: Type of Lesion: LIVER: TUMOR, LUNG: TUMOR) “active; positive”; (Species: RAT, Strain/Sex: F344/FEMALE, Route: ORAL, Dose: 0, 15, 30 MG/L IN DRINKING WATER 5 D/WK FOR 50 WK (TOTAL DOSE: 0; 0.6; 1.2 MMOL) (STUDY DURATION: 124 WK), Dose: 0, 15, 30 MG/L IN DRINKING WATER 5 D/WK FOR 50 WK (TOTAL DOSE: 0; 0.6; 1.2 MMOL) (STUDY DURATION: 124 WK)) “inactive; negative”.
For the molecule `O=[N+]([O-])c1ccc2c3c(cccc13)CC2`, the carcinogen call runs as follows: (Species: MOUSE, Strain/Sex: B6C3F1/FEMALE, Route: ORAL, Dose: 0, 0.05, 0.12% TWA, IN DIET FOR 78 WK (STUDY DURATION: 96 WK), Dose: 0, 0.05, 0.12% TWA, IN DIET FOR 78 WK (STUDY DURATION: 96 WK), Tumor Site: Type of Lesion: LIVER: HEPATOCELLULAR CARCINOMA, OVARIES: GRANULOSA CELL TUMOR, LUTEOMA OR TUBULAR CELL ADENOMA) “active; positive”; (Species: MOUSE, Strain/Sex: B6C3F1/MALE, Route: ORAL, Dose: 0, 0.06, 0.12% TWA, IN DIET FOR 78 WK (STUDY DURATION: 96 WK), Dose: 0, 0.06, 0.12% TWA, IN DIET FOR 78 WK (STUDY DURATION: 96 WK)) “inactive; negative”; (Species: RAT, Strain/Sex: F344/FEMALE, Route: ORAL, Dose: 0, 0.12, 0.24% IN DIET FOR 78 WK (STUDY DURATION: 87-100 WK), Dose: 0, 0.12, 0.24% IN DIET FOR 78 WK (STUDY DURATION: 87-100 WK), Tumor Site: Type of Lesion: LUNG: ALVEOLAR/BRONCHIOLAR ADENOMA OR ALVEOLAR/BRONCHIOLAR CARCINOMA, MAMMARY GLAND: ADENOCARCINOMA OR PAPILLARY CYSTADE) “active; positive”; (Species: RAT, Strain/Sex: F344/MALE, Route: ORAL, Dose: 0, 0.12, 0.24% IN DIET FOR 70-78 WK (STUDY DURATION: 70-100 WK), Dose: 0, 0.12, 0.24% IN DIET FOR 70-78 WK (STUDY DURATION: 70-100 WK), Tumor Site: Type of Lesion: LUNG: ALVEOLAR/BRONCHIOLAR ADENOMA OR ALVEOLAR/BRONCHIOLAR CARCINOMA, EAR (EAR CANAL OR SKIN OF EAR): SQUAMOUS CELL CARC) “active; positive”.
For `O=C[C@H](O)[C@@H](O)[C@H](O[C@@H]1O[C@H](CO)[C@H](O)[C@H](O)[C@H]1O)[C@H](O)CO`, the carcinogen call (Species: RAT, Strain/Sex: SPF/FEMALE, Route: ORAL, Dose: 0, 20% IN DIET FOR DURATION OF STUDY ADMINISTERED TO OFFSPRING OF RATS FED THE SAME DIETS (STUDY DURATION: 130 WK)) was “inactive; negative” and the carcinogen call (Species: RAT, Strain/Sex: SPF/MALE, Route: ORAL, Dose: 0, 20% IN DIET FOR DURATION OF STUDY ADMINISTERED TO OFFSPRING OF RATS FED THE SAME DIETS (STUDY DURATION: 130 WK), Tumor Site: Type of Lesion: ADRENAL GLAND: MEDULLARY TUMORS, TESTES: LEYDIG CELL TUMOR) is “active; positive”.
For `O=NN1CCC1`, where the note is “Species: HAMSTER, Strain/Sex: SYRIAN/MALE, Route: INTRAGASTRIC, Dose: 0, 50 MG/ML IN 0.2 ML STERILIZED WATER 1/WK FOR 50 WK (TOTAL DOSE 500 MG) (STUDY DURATION: LIFESPAN), Tumor Site: Type of Lesion: LIVER: ADENOMA, HEPATOCELLULAR CARCINOMA, HEMANGIOSARCOMA, NOSE: CARCINOMA”, the carcinogen call was “active; positive”.
With `CC(N)Cc1ccccc1` (configuration not stated), the carcinogen call is, setting by setting: (Species: MOUSE, Strain/Sex: B6C3F1/FEMALE, Route: ORAL, Dose: 0, 20, 100 PPM IN DIET FOR 103 WK (STUDY DURATION: 105 WK), Dose: 0, 20, 100 PPM IN DIET FOR 103 WK (STUDY DURATION: 105 WK)) “inactive; negative”; (Species: MOUSE, Strain/Sex: B6C3F1/MALE, Route: ORAL, Dose: 0, 20, 100 PPM IN DIET FOR 103 WK (STUDY DURATION: 105 WK), Dose: 0, 20, 100 PPM IN DIET FOR 103 WK (STUDY DURATION: 105 WK)) “inactive; negative”; (Species: RAT, Strain/Sex: F344/FEMALE, Route: ORAL, Dose: 0, 20, 100 PPM IN DIET FOR 103 WK (STUDY DURATION: 105 WK), Dose: 0, 20, 100 PPM IN DIET FOR 103 WK (STUDY DURATION: 105 WK)) “inactive; negative”; (Species: RAT, Strain/Sex: F344/MALE, Route: ORAL, Dose: 0, 20, 100 PPM IN DIET FOR 103 WK (STUDY DURATION: 105 WK), Dose: 0, 20, 100 PPM IN DIET FOR 103 WK (STUDY DURATION: 105 WK)) “inactive; negative”.
Turning to `c1ccc2c(c1)CCc1cc3c4c(ccc3cc1-2)CCCC4`, for the setting “Species: MOUSE, Strain/Sex: SWISS/FEMALE, Route: DERMAL, Dose: 0, 38 UG AS A 0.2% SOLUTION IN ACETONE APPLIED TO INTERSCAPULAR REGION 2/WK FOR 50 WK (STUDY DURATION: 60 WK), Tumor Site: Type of Lesion: SKIN: CARCINOMA”, the carcinogen call is “active; positive”.
With `Clc1ccc(-c2cc(Cl)c(Cl)c(Cl)c2)cc1Cl`, the carcinogen call by setting is: (Species: RAT, Strain/Sex: SPRAGUE-DAWLEY/FEMALE, Route: GAVAGE, Dose: 0, 30, 100, 175, 300, 550, 1000 NG/KG BW 5 D/WK FOR 2 YRS, Dose: 0, 30, 100, 175, 300, 550, 1000 NG/KG BW 5 D/WK FOR 2 YRS, Tumor Site: Type of Lesion: LIVER: CHOLANGIOCARCINOMA, HEPATOCELLULAR ADENOMA OR CARCINOMA) “active; positive”; (Species: RAT, Strain/Sex: SPRAGUE-DAWLEY/FEMALE, Route: GAVAGE, Dose: 0, 30, 100, 175, 300, 550, 1000 NG/KG BW 5 D/WK FOR 2 YRS, Dose: 0, 30, 100, 175, 300, 550, 1000 NG/KG BW 5 D/WK FOR 2 YRS, Tumor Site: Type of Lesion: LUNG: CYSTIC KERATINIZING EPITHELIOMA) “active; positive”; (Species: RAT, Strain/Sex: SPRAGUE-DAWLEY/FEMALE, Route: GAVAGE, Dose: 0, 30, 100, 175, 300, 550, 1000 NG/KG BW 5 D/WK FOR 2 YRS, Dose: 0, 30, 100, 175, 300, 550, 1000 NG/KG BW 5 D/WK FOR 2 YRS, Tumor Site: Type of Lesion: ORAL CAVITY: SQUAMOUS CELL CARCINOMA) “active; positive”; (Species: RAT, Strain/Sex: SPRAGUE-DAWLEY/FEMALE, Route: GAVAGE, Dose: 1000 NG/KG BW 5 D/WK FOR 30 WKS (STUDY DURATION: 2 YRS)) “inactive; negative”; (Species: RAT, Strain/Sex: SPRAGUE-DAWLEY/FEMALE, Route: ORAL, Dose: 0, 30, 100, 175, 300, 550, 1000 NG/KG/D (STUDY DURATION: 2 YRS), Dose: 0, 30, 100, 175, 300, 550, 1000 NG/KG/D (STUDY DURATION: 2 YRS), Tumor Site: Type of Lesion: ORAL MUCOSA: SQUAMOUS CELL CARCINOMA) “active; positive; highest dose only”.
Take `CC1CN(N=O)CC(C)N1C(=O)c1ccccc1` (configuration not stated): the carcinogen call (Species: RAT, Strain/Sex: F344/FEMALE, Route: ORAL, Dose: 0, 172 MG/L IN DRINKING WATER 5 D/WK FOR 50 WK, STUDY DURATION: 120-130 WK, Dose: 0, 172 MG/L IN DRINKING WATER 5 D/WK FOR 50 WK, STUDY DURATION: 120-130 WK, Tumor Site: Type of Lesion: FORESTOMACH: PAPILLOMA OR CARCINOMA) is “active; positive”.
As to `O=NN1CCN(N=O)CC1`, under “Species: RAT, Strain/Sex: F344/FEMALE, Route: INTRAVESICAL, Dose: 0, 374 MG (TOTAL DOSE) INJECTED INTO BLADDER 2/WK OVER 36 WK (STUDY DURATION: 102 WK), Tumor Site: Type of Lesion: NASAL CAVITY: TUMOR”, the carcinogen call is “active; positive”.
